One test concerns the target Procathepsin L (Bos taurus, UniProt P25975). In words: Inhibitory activity against bovine cathepsin L using Z-Phe-Arg-NHMec substrate.
A further test deals with T1, Cathepsin K (Homo sapiens, UniProt P43235).
T1 sequence (P43235 whole entry): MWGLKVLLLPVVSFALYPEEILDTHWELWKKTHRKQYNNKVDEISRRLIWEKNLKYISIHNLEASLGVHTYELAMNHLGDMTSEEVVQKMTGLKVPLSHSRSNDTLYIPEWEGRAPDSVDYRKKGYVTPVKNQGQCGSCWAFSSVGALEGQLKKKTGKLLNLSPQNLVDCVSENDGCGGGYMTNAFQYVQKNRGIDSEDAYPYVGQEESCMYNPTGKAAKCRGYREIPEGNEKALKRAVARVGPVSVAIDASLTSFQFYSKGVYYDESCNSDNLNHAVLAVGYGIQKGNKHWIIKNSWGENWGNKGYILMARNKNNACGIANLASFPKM
The experiment in a line: Inhibitory activity against human cathepsin K using Z-Leu-Arg-NHMec substrate.

For the next test, the target named is T2, Papain (Carica papaya, UniProt P00784).
T2 sequence (P00784 whole entry): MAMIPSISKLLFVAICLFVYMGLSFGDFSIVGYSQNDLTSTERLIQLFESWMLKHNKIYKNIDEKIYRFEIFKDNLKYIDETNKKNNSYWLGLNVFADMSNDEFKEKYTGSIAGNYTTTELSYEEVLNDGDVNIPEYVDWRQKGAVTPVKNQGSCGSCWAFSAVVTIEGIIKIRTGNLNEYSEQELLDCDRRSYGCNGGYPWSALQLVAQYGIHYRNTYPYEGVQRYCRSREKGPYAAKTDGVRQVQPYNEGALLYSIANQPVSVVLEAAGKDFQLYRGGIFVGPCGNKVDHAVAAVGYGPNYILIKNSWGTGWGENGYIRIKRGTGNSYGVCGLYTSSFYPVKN
The experiment in a line: Inhibitory activity against papain using Z-Phe-Arg-NHNp substrate.

For the next test, the target named is Cathepsin S (Homo sapiens, UniProt P25774). The experiment in a line: Inhibitory activity against human cathepsin S using Z-Val-Val-Arg-NHMec substrate.

Where a SMILES comes first, the peptide text is derived from it. The star is where a group is joined. Boc = CC(C)(C)OC(=O)* A value given as a limit tells only on which side of the number the result lay.

Sequence of Cathepsin S (P25774 whole entry): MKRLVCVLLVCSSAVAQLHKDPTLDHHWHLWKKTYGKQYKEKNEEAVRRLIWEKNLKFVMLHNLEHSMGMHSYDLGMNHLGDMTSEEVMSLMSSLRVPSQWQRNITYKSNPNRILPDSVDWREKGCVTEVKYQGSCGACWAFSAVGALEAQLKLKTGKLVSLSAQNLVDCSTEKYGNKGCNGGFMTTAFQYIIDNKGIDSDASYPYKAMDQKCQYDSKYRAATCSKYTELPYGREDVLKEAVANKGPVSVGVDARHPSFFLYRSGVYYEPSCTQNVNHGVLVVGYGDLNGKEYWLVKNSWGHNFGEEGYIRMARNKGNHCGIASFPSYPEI
Sequence of Procathepsin L (P25975 whole entry): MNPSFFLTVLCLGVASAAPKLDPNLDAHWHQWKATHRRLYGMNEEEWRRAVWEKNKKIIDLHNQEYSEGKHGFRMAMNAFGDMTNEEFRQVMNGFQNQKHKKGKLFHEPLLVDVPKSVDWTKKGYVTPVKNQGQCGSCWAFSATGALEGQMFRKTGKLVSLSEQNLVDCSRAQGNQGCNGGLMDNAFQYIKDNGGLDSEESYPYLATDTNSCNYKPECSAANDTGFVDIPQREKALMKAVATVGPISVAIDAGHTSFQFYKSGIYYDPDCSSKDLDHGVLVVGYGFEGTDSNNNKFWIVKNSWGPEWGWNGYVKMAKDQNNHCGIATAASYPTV

With `N#CCNC(=O)CNC(=O)OCc1ccccc1`, the Ki on Procathepsin L was above 1000 µM; at Cathepsin K, above 1000 µM; on Papain, 1600 µM; at Cathepsin S, above 1000 µM.
Turning to `CC(C)(C)OC(=O)N[C@@H](Cc1c(F)c(F)c(F)c(F)c1F)C(=O)NCC#N`, the Ki at Procathepsin L is 2.5 µM; at Cathepsin K, above 100 µM; on Papain, 14 µM; at Cathepsin S, 15 µM.
With `CC(C)(C)OC(=O)N[C@@H](Cc1ccc(F)cc1)C(=O)NCC#N`, the Ki was found to be 0.64 µM at Procathepsin L, 13 µM on Cathepsin K, 0.27 µM on Papain and 0.59 µM on Cathepsin S.
The corresponding values for `N#CCNC(=O)[C@H](Cc1ccccc1)NC(=O)c1ccccc1` are 0.23 µM, 1.5 µM, 0.062 µM and 0.077 µM.
As for `CC(C)(C)OC(=O)N[C@@H](Cc1ccc(Br)cc1)C(=O)NCC#N`, the Ki turned out to be 0.63 µM on Procathepsin L, 28 µM at Cathepsin K, 0.029 µM at Papain and 0.19 µM on Cathepsin S.
The corresponding values for `CC(C)(C)OC(=O)N[C@@H](Cc1ccccc1)C(=O)NCC=O` (Boc-Phe-Gly-aldehyde) are 0.022 µM, 0.074 µM, 0.015 µM and 0.025 µM.
Taken in the same sequence, the figures for `C=CCNC(=O)[C@H](Cc1ccccc1)NC(=O)OC(C)(C)C` were above 1000 µM, above 1000 µM, 497 µM and above 100 µM.
Take `CC(C)(C)OC(=O)N[C@@H](Cc1ccsc1)C(=O)NCC#N`: the Ki on Procathepsin L stood at 4.5 µM; on Cathepsin K, 2.1 µM; on Papain it was 0.57 µM; at Cathepsin S, 0.76 µM.
Taken in the same sequence, the figures for `CC(C)(C)OC(=O)N[C@@H](Cc1ccccc1Br)C(=O)NCC#N` were 1.1 µM, 4.2 µM, 0.46 µM and 0.61 µM.
In the case of `N#CCNC(=O)[C@H](Cc1ccccc1)NC(=O)c1ccc(-c2ccccc2)cc1`, the Ki on Procathepsin L was determined as 0.55 µM; at Cathepsin K, 0.3 µM; at Papain it was 0.016 µM; on Cathepsin S it was 0.24 µM.
The corresponding values for `C#CCNC(=O)[C@H](Cc1ccccc1)NC(=O)OC(C)(C)C` are above 1000 µM, above 1000 µM, 497 µM and above 100 µM.
Taken in the same sequence, the figures for `CC(=O)CNC(=O)[C@H](Cc1ccccc1)NC(=O)OC(C)(C)C` were 2.3 µM, 2.1 µM, 187 µM and 2.1 µM.
Taken in the same sequence, the figures for `N#CCNC(=O)CNS(=O)(=O)c1ccc2ccccc2c1` were 25 µM, above 100 µM, 10 µM and 2.5 µM.
Take `CC(C)(C)OC(=O)N[C@@H](Cc1ccc2ccccc2c1)C(=O)NCC#N`: the Ki at Procathepsin L amounted to 0.12 µM; at Cathepsin K it was 83 µM; at Papain it was 0.021 µM; at Cathepsin S, 0.083 µM.
Taken in the same sequence, the figures for `CC(C)(C)OC(=O)N[C@@H](CCc1ccccc1)C(=O)NCC#N` were 9.4 µM, 8.5 µM, 12 µM and 1.9 µM.
Taken in the same sequence, the figures for `CC(C)(C)OC(=O)NN(Cc1ccccc1)C(=O)NCC#N` were above 100 µM, above 100 µM, 725 µM and above 50 µM.
On to `CC(C)(C)OC(=O)N[C@@H](Cc1cccc(F)c1)C(=O)NCC#N`, for which the Ki on Procathepsin L came out at 0.7 µM; on Cathepsin K, 6.3 µM; at Papain it was 0.5 µM; at Cathepsin S it was 0.86 µM.
For `CC(C)(C)OC(=O)N[C@@H](Cc1ccc(O)cc1)C(=O)NCC#N`, the Ki at Procathepsin L turned out to be 0.4 µM; on Cathepsin K it was 30 µM; at Papain, 0.19 µM; at Cathepsin S, 0.97 µM.
As for `CC(C)(C)OC(=O)N[C@@H](Cc1ccccc1)C(=O)NCC#N`, the Ki amounted to 4.1 µM at Cathepsin K, 0.26 µM at Papain and 0.62 µM at Cathepsin S.
For the molecule `CC(C)(C)OC(=O)N[C@@H](COCc1ccccc1)C(=O)NCC#N`, the Ki on Procathepsin L is 33 µM; at Cathepsin K, above 100 µM; at Papain it was 11 µM; on Cathepsin S it was 2.2 µM.
The corresponding values for `CC(=O)N[C@@H](Cc1ccccc1)C(=O)NCC#N` are 5.8 µM, 7.5 µM, 0.38 µM and 1.4 µM.
The corresponding values for `CC(C)(C)OC(=O)N[C@@H](Cc1ccccc1F)C(=O)NCC#N` are 0.47 µM, 3.3 µM, 0.4 µM and 0.77 µM.
Taken in the same sequence, the figures for `CCCC[C@H](NC(=O)OC(C)(C)C)C(=O)NCC#N` were 19 µM, 1.27 µM, 1.57 µM and 0.55 µM.
Regarding `CCC[C@H](NC(=O)OC(C)(C)C)C(=O)NCC#N`, the Ki stood at 22 µM on Procathepsin L, 1.1 µM at Cathepsin K, 0.75 µM at Papain and 0.9 µM on Cathepsin S.
The corresponding values for `CSCC[C@H](NC(=O)OC(C)(C)C)C(=O)NCC#N` are 19 µM, 0.73 µM, 0.65 µM and 0.66 µM.
Taken in the same sequence, the figures for `CC(C)(C)OC(=O)N[C@@H](CC1CC1)C(=O)NCC#N` were 47 µM, 3.3 µM, 13 µM and 0.65 µM.
The corresponding values for `CC(C)(C)OC(=O)N[C@@H](Cc1ccccc1-c1ccccc1)C(=O)NCC#N` are above 100 µM, above 100 µM, 299 µM and above 100 µM.
Regarding `CC(C)C[C@H](NC(=O)OCc1ccccc1)C(=O)NCC#N`, the Ki at Procathepsin L was 0.75 µM; on Cathepsin K, 0.035 µM; on Papain, 3.1 µM; on Cathepsin S it was 0.13 µM.
The corresponding values for `CN(CC#N)C(=O)[C@H](Cc1ccccc1)NC(=O)OC(C)(C)C` are above 100 µM, above 100 µM, above 100 µM and above 100 µM.
Taken in the same sequence, the figures for `CC(C)(C)OC(=O)N[C@@H](CC1CCCCC1)C(=O)NCC#N` were 1.1 µM, 5.3 µM, 2.2 µM and 0.044 µM.
For the molecule `CC[C@@H](C)[C@H](NC(=O)OC(C)(C)C)C(=O)NCC#N`, the Ki at Procathepsin L was 4.9 µM; on Cathepsin K, 5.8 µM; at Papain it was 26 µM; at Cathepsin S it was 4.1 µM.
Taken in the same sequence, the figures for `CC(C)C[C@H](NC(=O)OC(C)(C)C)C(=O)NCC#N` were 1.2 µM, 0.12 µM, 2 µM and 0.13 µM.
Regarding `CC(C)(C)OC(=O)N[C@H](Cc1ccccc1)C(=O)NCC#N`, the Ki at Cathepsin K was above 100 µM; at Papain it was 41 µM; on Cathepsin S it was 46 µM.
On to `CC(C)(C)OC(=O)N[C@@H](Cc1cccc(Br)c1)C(=O)NCC#N`, for which the Ki on Procathepsin L is 0.27 µM; on Cathepsin K, 6.5 µM; on Papain, 0.33 µM; at Cathepsin S, 0.34 µM.
Taken in the same sequence, the figures for `C[C@H](NC(=O)OC(C)(C)C)C(=O)NCC#N` were above 100 µM, 136 µM, 22 µM and 292 µM.
Taken in the same sequence, the figures for `CC[C@H](NC(=O)OC(C)(C)C)C(=O)NCC#N` were above 100 µM, 5 µM, 5.4 µM and 28 µM.
Taken in the same sequence, the figures for `CC(C)[C@H](NC(=O)OC(C)(C)C)C(=O)NCC#N` were 2.8 µM, 6.5 µM, 2 µM and 6.2 µM.
`CC(C)(C)OC(=O)N[C@H](C(=O)NCC#N)c1ccccc1`: the Ki on Procathepsin L was determined as 29 µM; on Cathepsin K, 90 µM; on Papain it was 83 µM; on Cathepsin S it was 1.7 µM.
Take `CC(C)(C)OC(=O)N[C@@H](Cc1cccc2ccccc12)C(=O)NCC#N`: the Ki worked out at 1.7 µM at Procathepsin L, 66 µM at Cathepsin K, 28 µM at Papain and 1.3 µM on Cathepsin S.
The corresponding values for `CC(C)(C)OC(=O)N[C@@H](Cc1ccc(-c2ccccc2)cc1)C(=O)NCC#N` are 0.34 µM, 16 µM, 0.016 µM and 0.44 µM.
In the case of `CC(C)(C)OC(=O)N[C@@H](Cc1ccco1)C(=O)NCC#N`, the Ki at Procathepsin L came out at 14 µM; at Cathepsin K, 4.1 µM; on Papain, 1.2 µM; on Cathepsin S it was 2.8 µM.
Taken in the same sequence, the figures for `CC(C)(C)OC(=O)N[C@@H](Cc1cccc(-c2ccccc2)c1)C(=O)NCC#N` were 0.43 µM, 26 µM, 1.2 µM and 0.27 µM.
The corresponding values for `CC(C)(C)OC(=O)NCC(=O)NCC#N` are above 1000 µM, above 1000 µM, above 3000 µM and above 1000 µM.

As usually defined, the Ki is a measure of affinity in units of concentration, obtained from inhibition or displacement. Read a high Ki as lower affinity.

The values above are taken from ChEMBL document CHEMBL1141197, “Interaction of papain-like cysteine proteases with dipeptide-derived nitriles” (J Med Chem, 2005).
